Results reported in ChEMBL document CHEMBL3232863, “Small molecule disruptors of the glucokinase-glucokinase regulatory protein interaction: 3. Structure-activity relationships within the aryl carbinol region of the N-arylsulfonamido-N'-arylpiperazine series” (J Med Chem, 2014).

Key:
[1] = (§1) AUC in Sprague-Dawley rat at 10 mg/kg, po; assay type: ADME, organism-based, Plasma; design: dose 10 mg/kg, route oral; conditions: Sprague-Dawley, plasma
[2] = AUC in C57BL/6 mouse at 10 mg/kg, po; assay type: ADME, organism-based; design: dose 10 mg/kg, route oral; conditions: plasma
[3] = Cmax in C57BL/6 mouse at 10 mg/kg, po; assay type: ADME, organism-based; design: dose 10 mg/kg, route oral; conditions: in vivo
[4] = Tmax in C57BL/6 mouse at 10 mg/kg, po; assay type: ADME, organism-based; design: dose 10 mg/kg, route oral; conditions: in vivo
[5] = (§2) Oral bioavailability in Sprague-Dawley rat at 10 mg/kg; assay type: ADME, organism-based; conditions: Sprague-Dawley, in vivo
Rattus norvegicus [6] = experiment: as §2; assay type: ADME, organism-based; conditions: in vivo
Rattus norvegicus [7] = experiment: as §1; assay type: ADME, organism-based, Plasma; design: dose 10 mg/kg, route oral; conditions: in vivo
[8] = Oral bioavailability in C57BL/6 mouse at 10 mg/kg; assay type: ADME, organism-based; conditions: in vivo

**Q.** Which AUC [1] does the source give for CC#C[C@H]1CN(S(=O)(=O)c2ccc(N)nc2)CCN1c1ccc(C(O)(C(F)(F)F)C(F)(F)F)cc1 here?
**A.** 20 µM·h

**Q.** What about the AUC [2] of the same compound?
**A.** 64.8 µM·h

**Q.** What about the Cmax [3] of the same compound?
**A.** 5.82 µM

**Q.** What about the Tmax [4] of the same compound?
**A.** 5 h

**Q.** For CC#C[C@H]1CN(S(=O)(=O)c2ccc(N)nc2)CCN1c1ccc([C@](O)(CO)C(F)(F)F)cc1, which bioavailability [5] is on record?
**A.** 48%

**Q.** And the AUC [1]?
**A.** 7.1 µM·h

**Q.** For CC#C[C@H]1CN(S(=O)(=O)c2ccc(N)nc2)CCN1c1ccc(S(N)(=O)=O)cc1, which bioavailability [5] is on record?
**A.** 5%

**Q.** And the AUC [1]?
**A.** 0.26 µM·h

**Q.** Which F (Rattus norvegicus [6]) does the source give for CC#C[C@H]1CN(S(=O)(=O)c2ccc(N)nc2)CCN1c1ccc(S(=O)(=O)NC)cc1 here?
**A.** 1.5%

**Q.** And the AUC (Rattus norvegicus [7])?
**A.** 0.03 µM·h

**Q.** For CC#C[C@H]1CN(S(=O)(=O)c2ccc(N)nc2)CCN1c1ccc([S@](=N)(=O)C(F)(F)F)cc1, which bioavailability [5] is on record?
**A.** 51%

**Q.** And the AUC [1]?
**A.** 25.3 µM·h

**Q.** What about the bioavailability [8] of the same compound?
**A.** 53%

**Q.** What about the AUC [2] of the same compound?
**A.** 362 µM·h

**Q.** And the Cmax [3]?
**A.** 46.6 µM

**Q.** What about the Tmax [4] of the same compound?
**A.** 1 h

**Q.** What does the source list for CC#C[C@H]1CN(S(=O)(=O)c2ccc(N)nc2)CCN1c1ccc([C@@](C)(O)C(F)(F)F)cn1?
**A.** bioavailability [5]: 47%; AUC [1]: 28.4 µM·h; bioavailability [8]: 47%; AUC [2]: 37 µM·h; Cmax [3]: 9.71 µM; Tmax [4]: 0.25 h
